Experimental data reported in patent US20110086759A1, “CHEMICAL COMPOUNDS” (SYNGENTA CROP PROTECTION, INC., priority 2007, published 2011).

Tests used:
Format in all cases: in vivo
[1] = tested on: Echinochloa crus-galli (ECHCG); assay: Post-emergence biological efficacy, glasshouse pot test; conditions: 312 h
How it was run: (§1)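 Plants were sown in standard soil and grown 8 days in a glasshouse (24/16° C. day/night, 14 hours light, 65% humidity), then sprayed post-emergence at 1000 or 250 g/ha from acetone/water (50:50) with 0.5% Tween 20. Damage was scored visually after 13 days (0 = none, 100 = total).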

[2] = tested on: Amaranthus retoflexus (AMARE); assay: as above; conditions: Amaranthus retroflexus, 312 h
How it was run: as §1

Setaria faberi (SETFA) [3] = assay: as above; conditions: 312 h
How it was run: as §1

[4] = tested on: Alopecurus myosuroides (ALOMY); assay: as above; conditions: 312 h
How it was run: as §1

[5] = tested on: Ipomea hederaceae (IPOHE); assay: as above; conditions: Ipomoea hederacea, 312 h
How it was run: as §1

Solanum nigrum (SOLNI) [6] = assay: as above; conditions: 312 h
How it was run: as §1

[7] = tested on: Echinochloa crus-galli (ECHCG); assay: Pre-emergence biological efficacy, glasshouse pot test; conditions: 312 h
How it was run: (§2)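 Compound was applied as a spray one day after sowing, at a final dose of 1000 or 250 g/ha. Plants grew under 14 h light, 24/16 °C and 65% humidity, and injury was assessed on day 13 on a 0–100 scale.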

[8] = tested on: Amaranthus retoflexus (AMARE); assay: as above; conditions: Amaranthus retroflexus, 312 h
How it was run: as §2

Setaria faberi (SETFA) [9] = assay: as above; conditions: 312 h
How it was run: as §2

[10] = tested on: Alopecurus myosuroides (ALOMY); assay: as above; conditions: 312 h
How it was run: as §2

[11] = tested on: Ipomea hederaceae (IPOHE); assay: as above; conditions: Ipomoea hederacea, 312 h
How it was run: as §2

Solanum nigrum (SOLNI) [12] = assay: as above; conditions: 312 h
How it was run: as §2

[13] = post-emergence, 1,000 g/ha, evaluated after 13 days (100=total damage; 0=no damage), read-out: Percentage damage caused to weed species, ECHCG
[14] = post-emergence, 1,000 g/ha, evaluated after 13 days (100=total damage; 0=no damage), read-out: Percentage damage caused to weed species, AMARE
[15] = post-emergence, 1,000 g/ha, evaluated after 13 days (100=total damage; 0=no damage), read-out: Percentage damage caused to weed species, SETFA
[16] = post-emergence, 1,000 g/ha, evaluated after 13 days (100=total damage; 0=no damage), read-out: Percentage damage caused to weed species, ALOMY
[17] = post-emergence, 1,000 g/ha, evaluated after 13 days (100=total damage; 0=no damage), read-out: Percentage damage caused to weed species, IPOHE
[18] = post-emergence, 1,000 g/ha, evaluated after 13 days (100=total damage; 0=no damage), read-out: Percentage damage caused to weed species, SOLNI
[19] = pre-emergence, 1,000 g/ha, evaluated after 13 days (100=total damage; 0=no damage), read-out: Percentage damage ECHCG
[20] = pre-emergence, 1,000 g/ha, evaluated after 13 days (100=total damage; 0=no damage), read-out: Percentage damage AMARE
[21] = pre-emergence, 1,000 g/ha, evaluated after 13 days (100=total damage; 0=no damage), read-out: Percentage damage SETFA
[22] = pre-emergence, 1,000 g/ha, evaluated after 13 days (100=total damage; 0=no damage), read-out: Percentage damage ALOMY
[23] = pre-emergence, 1,000 g/ha, evaluated after 13 days (100=total damage; 0=no damage), read-out: Percentage damage IPOHE
[24] = pre-emergence, 1,000 g/ha, evaluated after 13 days (100=total damage; 0=no damage), read-out: Percentage damage SOLNI
[25] = Rate 1,000 g/ha, post-emergence spray, evaluated after 13 days (100=total damage to plant; 0=no damage to plant), read-out: Percentage damage caused to weed species, post-emergence, ECHCG
[26] = Rate 1,000 g/ha, post-emergence spray, evaluated after 13 days (100=total damage to plant; 0=no damage to plant), read-out: Percentage damage caused to weed species, post-emergence, AMARE
[27] = Rate 1,000 g/ha, post-emergence spray, evaluated after 13 days (100=total damage to plant; 0=no damage to plant), read-out: Percentage damage caused to weed species, post-emergence, SETFA
[28] = Rate 1,000 g/ha, post-emergence spray, evaluated after 13 days (100=total damage to plant; 0=no damage to plant), read-out: Percentage damage caused to weed species, post-emergence, ALOMY
[29] = Rate 1,000 g/ha, post-emergence spray, evaluated after 13 days (100=total damage to plant; 0=no damage to plant), read-out: Percentage damage caused to weed species, post-emergence, IPOHE
[30] = Rate 1,000 g/ha, post-emergence spray, evaluated after 13 days (100=total damage to plant; 0=no damage to plant), read-out: Percentage damage caused to weed species, post-emergence, SOLNI
[31] = pre-emergence, rate 1,000 g/ha, evaluated after 13 days (100=total damage to plant; 0=no damage), read-out: Percentage damage caused to weed species, ECHCG
[32] = pre-emergence, rate 1,000 g/ha, evaluated after 13 days (100=total damage to plant; 0=no damage), read-out: Percentage damage caused to weed species, AMARE
[33] = pre-emergence, rate 1,000 g/ha, evaluated after 13 days (100=total damage to plant; 0=no damage), read-out: Percentage damage caused to weed species, SETFA
[34] = pre-emergence, rate 1,000 g/ha, evaluated after 13 days (100=total damage to plant; 0=no damage), read-out: Percentage damage caused to weed species, ALOMY
[35] = pre-emergence, rate 1,000 g/ha, evaluated after 13 days (100=total damage to plant; 0=no damage), read-out: Percentage damage caused to weed species, IPOHE
[36] = pre-emergence, rate 1,000 g/ha, evaluated after 13 days (100=total damage to plant; 0=no damage), read-out: Percentage damage caused to weed species, SOLNI

Row | Structure (SMILES) | pest or weed control at 1000 g/ha [1, 13] [%] | pest or weed control at 1000 g/ha [2, 14] [%] | pest or weed control at 1000 g/ha (Setaria faberi (SETFA) [3]; [15]) [%] | pest or weed control at 1000 g/ha [4, 16] [%] | pest or weed control at 1000 g/ha [5, 17] [%] | pest or weed control at 1000 g/ha (Solanum nigrum (SOLNI) [6]; [18]) [%] | pest or weed control at 1000 g/ha [7, 19] [%] | pest or weed control at 1000 g/ha [8, 20] [%] | pest or weed control at 1000 g/ha (Setaria faberi (SETFA) [9]; [21]) [%] | pest or weed control at 1000 g/ha [10, 22] [%] | pest or weed control at 1000 g/ha [11, 23] [%] | pest or weed control at 1000 g/ha (Solanum nigrum (SOLNI) [12]; [24]) [%] | pest or weed control at 1000 g/ha [1, 25] [%] | pest or weed control at 1000 g/ha [2, 26] [%] | pest or weed control at 1000 g/ha (Setaria faberi (SETFA) [3]; [27]) [%] | pest or weed control at 1000 g/ha [4, 28] [%] | pest or weed control at 1000 g/ha [5, 29] [%] | pest or weed control at 1000 g/ha (Solanum nigrum (SOLNI) [6]; [30]) [%] | pest or weed control at 1000 g/ha [7, 31] [%] | pest or weed control at 1000 g/ha [8, 32] [%] | other results
1 | COC(=O)c1nc(C2CC2)nc(NC(C)COc2ccccc2)c1Cl (stereo not drawn) [Compound 4-268, 5-Chloro-2-cyclopropyl-6-methoxycarbonyl-4-(2-phenoxy-1-methylethylamino)-pyrimidine] | 10 | 30 | 10 | 10 | 50 | 60 | 0 | 10 | 0 | 0 | 10 | 10 | – | – | – | – | – | – | – | – | –
2 | COC(=O)c1nc(C2CC2)nc(NC(CO)Cc2ccc(Cl)cc2)c1Cl (stereo not drawn) [Compound 4-274, 5-Chloro-4-[2-(4-chlorophenyl)-1-hydroxymethyl-ethylamino]-2-cyclopropyl-6-methoxycarbonyl-pyrimidine] | 20 | 100 | 30 | 30 | 50 | 80 | 30 | 60 | 40 | 40 | 80 | 80 | – | – | – | – | – | – | – | – | –
3 | COC(=O)c1nc(C2CC2)nc(NC2(COc3ccc(Cl)cc3)CC2)c1Cl [Compound 4-16, 5-Chloro-4-[1-(4-chlorophenoxy-methyl)cyclo-propylamino]-2-cyclopropyl-6-methoxycarbonyl-pyrimidine] | 40 | 100 | 60 | 20 | 100 | 90 | 0 | 30 | 0 | 0 | 10 | 10 | – | – | – | – | – | – | – | – | –
4 | COC(=O)c1nc(-c2ccc(C)c([N+](=O)[O-])c2)nc(NCc2ccco2)c1Cl [Compound 256-48, 5-Chloro-4-(furan-2-ylmethylamino)-6-methoxycarbonyl-2-(4-methyl-3-nitrophenyl)-pyrimidine] | – | – | – | – | – | – | – | – | – | – | – | – | 0 | 30 | 10 | 0 | 20 | 50 | 0 | 80 | pest or weed control at 1000 g/ha (Setaria faberi (SETFA) [9]; [33]): 0%; pest or weed control at 1000 g/ha [10, 34]: 0%; pest or weed control at 1000 g/ha [11, 35]: 0%; pest or weed control at 1000 g/ha (Solanum nigrum (SOLNI) [12]; [36]): 0%
5 | CCCOC(=O)c1nc(C2CC2)nc(NCc2ccco2)c1Cl [Compound 198-125, 5-chloro-2-cyclopropyl-4-[(furan-2-ylmethyl)-amino]-6-^npropoxycarbonylpyrimidine] | – | – | – | – | – | – | – | – | – | – | – | – | 80 | 100 | 90 | 40 | 100 | 90 | 80 | 100 | pest or weed control at 1000 g/ha (Setaria faberi (SETFA) [9]; [33]): 80%; pest or weed control at 1000 g/ha [10, 34]: 40%; pest or weed control at 1000 g/ha [11, 35]: 100%; pest or weed control at 1000 g/ha (Solanum nigrum (SOLNI) [12]; [36]): 100%
6 | COC(=O)c1nc(C2CC2)nc(N[C@@H](C)c2ccc(OC)cc2)c1Cl [4-181 (S), (S)-5-Chloro-2-cyclopropyl-6-methoxycarbonyl-4-[1-(4-methoxy-phenyl)ethylamino]-pyrimidine] | 50 | 100 | 40 | 30 | 90 | 90 | 50 | 60 | 0 | 20 | 80 | 60 | – | – | – | – | – | – | – | – | –
7 | COC(=O)c1nc(-c2ccc(OC)c(Cl)c2)nc(NCc2ccco2)c1Cl [Compound 254-48, 5-Chloro-2-(3-chloro-4-methoxyphenyl)-4-(furan-2-yl-methyl-amino)-6-methoxy-carbonylpyrimidine] | – | – | – | – | – | – | – | – | – | – | – | – | 0 | 20 | 0 | 0 | 10 | 30 | 0 | 0 | pest or weed control at 1000 g/ha (Setaria faberi (SETFA) [9]; [33]): 0%; pest or weed control at 1000 g/ha [10, 34]: 0%; pest or weed control at 1000 g/ha [11, 35]: 0%; pest or weed control at 1000 g/ha (Solanum nigrum (SOLNI) [12]; [36]): 0%
8 | COC(=O)c1nc(C2CC2)nc(NCc2ccc(OC(F)(F)F)cc2)c1Cl [Compound 4-83, 5-Chloro-2-cyclopropyl-6-methoxycarbonyl-4-(4-trifluoromethoxy-phenylmethyl-amino)pyrimidine] | 60 | 100 | 90 | 20 | 100 | 100 | 0 | 60 | 10 | 0 | 50 | 40 | – | – | – | – | – | – | – | – | –
9 | COC(=O)c1nc(C2CC2)nc(NCCCN2CCCCC2C)c1Cl (stereo not drawn) [Compound 4-247, 5-Chloro-2-cyclopropyl-6-methoxycarbonyl-4-[3-(2-methyl-piperidin-1-yl)-propylamino]-pyrimidine] | 20 | 100 | 20 | 10 | 50 | 50 | 10 | 30 | 10 | 10 | 20 | 70 | – | – | – | – | – | – | – | – | –
